# Reference: patent US3974153A, “7-Hydrocarbonoxy imino-acetamido-3-carbamoyloxy methylceph-3-em-4 carboxylic acids” (Glaxo Laboratories Limited, priority 1971, dated 1976)
# Structures can show the parent of a compound that is named as a salt.
# Key:
# [1] = exposure of crystalline forms to water vapour; assay type: physicochemical; settings: for water content after exposure to moisture (Karl-Fischer): 75% relative humidity, 3 days, product is Form IV
# Description: The resulting material contains about 4% water (i.e. about 1 mole) and is believed to be a hydrate. This change is reversible, so that Form IV salt may be converted to Form I salt by, for example, drying in vacuo over a desiccating agent such as phosphorus pentoxide.
# If crystalline Form III material is treated in this way, the crystal habit of the product appears to be retained throughout the sequence of transformations. Form III salt may also be converted to Form I salt by heating a suspension of Form III material in nearly boiling methanol; this transformation […] in loss of crystallinity where crystalline Form III material is used.
# Sample of Form I and Form III sodium 3-carbamoyloxymethyl-7-[2-(fur-2-yl)-2-methoxyiminoacetamido]ceph-3-em-4-carboxylate (syn isomer), prepared according to Method (iii) of Example 7 and Example 9 respectively, were exposed to moisture (75% relative humidity) for 3 days to give the title compound. The IR and NMR spectra of the products conformed to those of an authentic sample. Karl-Fischer water analysis gave, respectively, 4.0 and 3.85% (1 mole H2 O is equivalent to 3.9%).
# solubility of base salts = assay type: physicochemical; settings: e.g. alkali metal salts
# [2] = distribution in the body on administration by injection; assay type: in vivo
# [3] = tested on: gram-positive and gram-negative microorganisms; test: antibacterial activity against gram-positive and gram-negative microorganisms; assay type: cell-based
# Staphylococci = test: antibacterial activity; assay type: cell-based; settings: in vitro and in vivo tests
# Staphylococcus aureus = test: antibacterial activity; assay type: cell-based; settings: in vitro and in vivo tests
# Streptococcus pyogenes = test: antibacterial activity; assay type: cell-based; settings: in vitro and in vivo tests
# Streptococcus vilidans = test: antibacterial activity; assay type: cell-based; settings: in vitro and in vivo tests
# Diplococcus pneumoniae = test: antibacterial activity; assay type: cell-based; settings: in vitro and in vivo tests
# Haemophilus influenzae = test: antibacterial activity; assay type: cell-based
# Neisseria species = test: antibacterial activity; assay type: cell-based; settings: in vitro and in vivo tests
# Clostridia species = test: antibacterial activity; assay type: cell-based; settings: in vitro and in vivo tests
# Escherichia coli = test: antibacterial activity; assay type: cell-based; settings: in vitro and in vivo tests
# Klebsiella species = test: antibacterial activity; assay type: cell-based; settings: in vitro and in vivo tests
# Proteus species = test: antibacterial activity; assay type: cell-based; settings: in vitro and in vivo tests
# Enterobacter species = test: antibacterial activity; assay type: cell-based; settings: in vitro and in vivo tests
# Neisseria gonorrhoeae = test: in vitro antibacterial activity; assay type: cell-based
# Neisseria meningitidis = test: in vitro antibacterial activity; assay type: cell-based
# β-lactamases = test: stability to β-lactamases produced by gram-negative organisms; assay type: cell-based; settings: evidenced by in vitro activity against β-lactamase-producing strains of Escherichia, Enterobacter and Klebsiella species
# mammalian esterases = test: resistance to esterases; assay type: in vitro ADME
# [4] = stability in the body and urinary recovery, humans; assay type: in vivo, human
# [5] = stability in the body and urinary recovery, animals; assay type: in vivo
# [6] = serum levels following parenteral administration, humans; assay type: in vivo; settings: human subjects
# [7] = serum levels following parenteral administration, animals; assay type: in vivo; settings: animal subjects
# serum binding = assay type: in vitro ADME
smiles,measurement,setting,value
"CO/N=C(\C(=O)N[C@@H]1C(=O)N2C(C(=O)O)=C(COC(N)=O)CS[C@H]12)c1ccco1 [Form I, Form I Sodium (6R,7R)-3-Carbamoyloxymethyl-7-[2-(fur-2-yl)-2-methoxyiminoacetamido]ceph-3-em-4-carboylate (syn isomer)]",water content after exposure to moisture (Karl-Fischer),[1],4.0%
same,change of form on exposure to water vapour,[1]; e.g. 75% relative humidity,undergo a change of crystalline form leading generally to Form IV salt
same,water absorption on exposure to water vapour (hygroscopicity),[1]; e.g. 75% relative humidity,absorb further water
same,water content of material resulting from exposure to water vapour,"[1]; e.g. 75% relative humidity, material generally Form IV",about 4%
"CO/N=C(\C(=O)N[C@@H]1C(=O)N2C(C(=O)O)=C(COC(N)=O)CS[C@H]12)c1ccco1 [sodium salt, sodium (6R,7R)-3-carbamoyloxymethyl-7-[2-(fur-2-yl)-2-methoxyiminoacetamido]ceph-3-em-4-carboxylate (syn isomer)]",solubility,solubility of base salts,highly soluble
same,distribution in the body,[2],rapid distribution
"CO/N=C(\C(=O)N[C@@H]1C(=O)N2C(C(=O)O)=C(COC(N)=O)CS[C@H]12)c1ccco1 [Form III, Form III Sodium (6R,7R)-3-Carbamoyloxymethyl-7-[2-(fur-2-yl)-2-methoxyiminoacetamido]ceph-3-em-4-carboxylate (syn isomer)]",water content after exposure to moisture (Karl-Fischer),[1],3.85%
same,change of form on exposure to water vapour,[1]; e.g. 75% relative humidity,loses all the dioxan present and forms Form IV material
same,water absorption on exposure to water vapour (hygroscopicity),[1]; e.g. 75% relative humidity,hygroscopic
"CO/N=C(\C(=O)N[C@@H]1C(=O)N2C(C(=O)O)=C(COC(N)=O)CS[C@H]12)c1ccco1 [compound (II), (6R,7R)-3-carbamoyloxymethyl-7-[2-(fur-2-yl)-2-methoxyiminoacetamido]ceph-3-em-4-carboxylic acid (syn isomer)]",activity against gram-positive and gram-negative microorganisms,[3]; in vitro and in vivo tests,active
same,in vitro activity at high inoculum levels,[3]; inoculum levels as high as 10^7 organisms/ml,good in vitro activity
same,activity against Staphylococci,Staphylococci,active
same,activity against Staphylococcus aureus,Staphylococcus aureus,active
same,activity against Streptococcus pyogenes,Streptococcus pyogenes,active
same,activity against Streptococcus vilidans,Streptococcus vilidans,active
same,activity against Diplococcus pneumoniae,Diplococcus pneumoniae,active
same,in vitro activity against strains of Haemophilus influenzae,Haemophilus influenzae; in vitro,particularly high in vitro activity
same,activity against Haemophilus influenzae,Haemophilus influenzae; in vitro and in vivo tests,active
same,activity against Neisseria species,Neisseria species,active
same,activity against Clostridia species,Clostridia species,active
same,activity against Escherichia coli,Escherichia coli,active
same,activity against Klebsiella species,Klebsiella species,active
same,activity against Proteus species,Proteus species,active
same,activity against Enterobacter species,Enterobacter species,active
same,in vitro activity against strains of Neisseria gonorrhoeae,Neisseria gonorrhoeae,particularly high in vitro activity
same,in vitro activity against strains of Neisseria meningitidis,Neisseria meningitidis,particularly high in vitro activity
same,stability to β-lactamases produced by a range of gram-negative organisms,β-lactamases,very high stability
same,resistance to the action of mammalian esterases,mammalian esterases,resistant
same,recovery of unchanged compound in the urine,[4],high levels
same,stability in the body,[4],stable
same,recovery of unchanged compound in the urine,[5],high levels
same,stability in the body,[5],stable
same,serum levels,[6],high serum levels
same,serum levels,[7],high serum levels
same,serum binding,serum binding,low serum binding
"CO/N=C(\C(=O)N[C@@H]1C(=O)N2C(C(=O)O)=C(COC(N)=O)CS[C@H]12)c1ccco1 [Form II, Form II Sodium (6R,7R)-3-Carbamoyloxymethyl-7-[2-(fur-2-yl)-2-methoxyiminoacetamido]ceph-3-em-4-carboxylate (syn isomer)]",water absorption on exposure to water vapour (hygroscopicity),[1]; e.g. 75% relative humidity,does not absorb further water
